Reference: ChEMBL document CHEMBL5052829, “Arf6 inhibitors and related methods” (2021)
Active and inactive are the calls of the source. The rule behind the calls is not given here.

Legend:
[1] = Solubility in water; format: physicochemical
[2] = Clearance in Sprague-Dawley rats at 1.4 mg/kg, iv; format: ADME, organism-based; settings: rat, in vivo
[3] = Volume of distribution in Sprague-Dawley rats at 1.4 mg/kg, iv; format: ADME, organism-based; settings: rat, in vivo
[4] = Terminal half-life in Sprague-Dawley rats at 1.4 mg/kg, iv; format: ADME, organism-based; settings: rat, in vivo, read-out: beta t1/2 (converted)
[5] = Toxicity in multidrug-resistant Pseudomonas aeruginosa infected mouse model of pneumonia assessed as improvement in animal survival at 64 mg/kg, sc administered once daily for 6 days; format: organism-based; settings: in vivo, 144 h, time 6 day
[6] = Toxicity in multidrug-resistant Pseudomonas aeruginosa infected mouse model of pneumonia assessed as improvement in animal survival at 38 mg/kg, sc administered once daily for 6 days; format: organism-based; settings: in vivo, 144 h, time 6 day
Mus musculus [7] = experiment: Antiinflammatory activity in mouse model of LPS-induced acute lung injury assessed as reduction in BALF protein at 64 mg/kg, iv; format: functional, organism-based
Mus musculus [8] = experiment: Antiinflammatory activity in mouse model of LPS-induced acute lung injury assessed as reduction in BALF protein at 38 mg/kg, iv; format: functional, organism-based
Mus musculus [9] = experiment: Antiinflammatory activity in mouse model of LPS-induced acute lung injury assessed as reduction in total cell count in BALF at 64 mg/kg, iv; format: functional, organism-based
Mus musculus [10] = experiment: Antiinflammatory activity in mouse model of LPS-induced acute lung injury assessed as reduction in total cell count in BALF at 38 mg/kg, iv; format: functional, organism-based
Mus musculus [11] = experiment: Antiinflammatory activity in mouse model of LPS-induced acute lung injury assessed as reduction in BALF protein at 5 mg/kg, ip administered immediately or 6 hrs after LPS stimulation; format: functional; parameters: scale not given: the % may be the effect or the level left

## Cc1ccc(-c2cc(=O)[nH]c3c(-c4ccc(Cl)cc4)c(Cc4ccccc4)nn23)c(OP(=O)(O)O)c1
[1]
  solubility: > 50 µM

## Cc1ccc(-c2c[nH]c3c(-c4ccc(Cl)cc4)c(Cc4ccccc4)nn3c2=O)c(O)c1
[1]
  solubility: < 1 µM

## NCCCC[C@H](N)C(=O)Oc1cc([N+](=O)[O-])ccc1-c1cc(=O)[nH]c2c(-c3ccc(Cl)cc3)c(Cc3ccccc3)nn12
[2]
  clearance: 0.417 mL/min/kg
[3]
  Vd: 0.383 L/kg
[4]
  half-life: 10.9 h

## O=c1c(-c2ccc(F)cc2OP(=O)([O-])[O-])c[nH]c2c(-c3ccc(Cl)cc3)c(Cc3ccccc3)nn12.[Na+].[Na+]
[1]
  solubility: > 50 µM

## Cc1ccc(-c2cc(=O)[nH]c3c(-c4ccc(Cl)cc4)c(Cc4ccccc4)nn23)c(OP(=O)([O-])[O-])c1.[Na+].[Na+]
[1]
  solubility: > 50 µM

## Cc1ccc(-c2c[nH]c3c(-c4ccc(Cl)cc4)c(Cc4ccccc4)nn3c2=O)c(OP(=O)([O-])[O-])c1.[Na+].[Na+]
[5]
  Activity: Non-Toxic
[1]
  solubility: > 50 µM
[6]
  Activity: Non-Toxic
Mus musculus [7]
  Activity: Active
Mus musculus [8]
  Activity: Active
Mus musculus [9]
  Activity: Active
Mus musculus [10]
  Activity: Active

## C[C@@H]1C[C@H]2[C@@H]3CCC4=CC(=O)C=C[C@]4(C)[C@@]3(F)[C@@H](O)C[C@]2(C)[C@@]1(O)C(=O)CO [DEXAMETHASONE]
Mus musculus [11]
  Activity: 37%
